Results reported in article PMC10648541, “Design, Synthesis, and Antiproliferative Activity of Selective Histone Deacetylases 6 Inhibitors Containing a Tetrahydropyridopyrimidine Scaffold” (Molecules, 2023).

How the values were obtained:
[1] = test system: SNB-19; assay: NCI-60 antiproliferative screening, SNB-19; assay type: cell-based; conditions: Homo sapiens, SNB-19 (CNS Cancer), read-out: Inhibition% values at 10 μM concentration
Description: (§1) Then, 8f was submitted to NCI for antiproliferative evaluation against 59 different tumor cell lines. The cancer types of the NCI-60 program include leukemia, non-small cell lung cancer (NSCLC), colon cancer, CNS cancer, melanoma, ovary cancer, renal cancer, prostate cancer, and breast cancer.

[2] = test system: IGROV1; assay: NCI-60 antiproliferative screening, IGROV1; assay type: cell-based; conditions: Homo sapiens, IGROV-1, IGROV1 (Ovarian Cancer), read-out: Inhibition% values at 10 μM concentration
Description: as §1

[3] = test system: T-47D; assay: NCI-60 antiproliferative screening, T-47D; assay type: cell-based; conditions: Homo sapiens, T47D, T-47D (Breast Cancer), read-out: Inhibition% values at 10 μM concentration
Description: as §1

[4] = test system: CAKI-1; assay: NCI-60 antiproliferative screening, CAKI-1; assay type: cell-based; conditions: Homo sapiens, CAKI-1 (Renal Cancer), read-out: Inhibition% values at 10 μM concentration
Description: as §1

[5] = molecular target: T1, HDAC4 (Homo sapiens, UniProt P56524); assay: In vitro HDAC enzyme assay (Reaction Biology Corporation), HDAC4; assay type: biochemical; conditions: Table 2 isozyme screen; duplicate, SD < 15%
T1 construct: purchased Reaction Biology Corporation
T1 sequence (P56524 whole entry): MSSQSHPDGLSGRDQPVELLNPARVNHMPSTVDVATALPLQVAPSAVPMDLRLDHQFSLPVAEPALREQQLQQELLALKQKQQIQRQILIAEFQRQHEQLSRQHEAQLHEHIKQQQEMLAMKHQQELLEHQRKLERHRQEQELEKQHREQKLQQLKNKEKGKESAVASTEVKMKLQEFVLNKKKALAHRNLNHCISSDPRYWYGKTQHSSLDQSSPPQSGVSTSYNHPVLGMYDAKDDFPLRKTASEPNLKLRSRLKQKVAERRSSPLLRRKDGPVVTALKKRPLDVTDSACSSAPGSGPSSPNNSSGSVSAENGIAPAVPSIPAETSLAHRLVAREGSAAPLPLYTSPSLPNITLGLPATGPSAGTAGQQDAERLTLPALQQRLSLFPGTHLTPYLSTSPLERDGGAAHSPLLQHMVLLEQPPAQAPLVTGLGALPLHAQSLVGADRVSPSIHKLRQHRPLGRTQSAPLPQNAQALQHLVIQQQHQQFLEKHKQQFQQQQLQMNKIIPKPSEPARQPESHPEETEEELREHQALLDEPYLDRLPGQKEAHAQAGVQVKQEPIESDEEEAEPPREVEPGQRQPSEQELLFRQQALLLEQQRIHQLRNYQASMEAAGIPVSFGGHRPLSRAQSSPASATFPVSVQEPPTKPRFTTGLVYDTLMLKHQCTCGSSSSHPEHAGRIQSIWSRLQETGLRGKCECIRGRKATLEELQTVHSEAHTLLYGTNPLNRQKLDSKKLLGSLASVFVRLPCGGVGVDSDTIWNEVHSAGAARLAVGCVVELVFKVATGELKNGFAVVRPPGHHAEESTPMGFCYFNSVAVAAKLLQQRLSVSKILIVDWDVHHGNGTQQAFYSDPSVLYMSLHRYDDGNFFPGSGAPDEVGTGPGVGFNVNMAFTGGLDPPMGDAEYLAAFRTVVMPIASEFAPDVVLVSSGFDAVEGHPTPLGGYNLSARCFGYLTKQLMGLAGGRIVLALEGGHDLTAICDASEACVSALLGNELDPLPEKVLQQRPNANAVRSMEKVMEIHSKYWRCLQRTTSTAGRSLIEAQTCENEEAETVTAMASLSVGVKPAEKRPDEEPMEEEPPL

[6] = test system: NCI-H322M; assay: NCI-60 antiproliferative screening, NCI-H322M; assay type: cell-based; conditions: Homo sapiens, NCI-H322M (Non-Small Cell Lung Cancer), read-out: Inhibition% values at 10 μM concentration
Description: as §1

[7] = molecular target: T2, HDAC2 (Homo sapiens, UniProt Q92769); assay: In vitro HDAC enzyme assay (Reaction Biology Corporation), HDAC2; assay type: biochemical; conditions: Table 2 isozyme screen; duplicate, SD < 15%
T2 construct: purchased Reaction Biology Corporation
T2 sequence (Q92769 whole entry): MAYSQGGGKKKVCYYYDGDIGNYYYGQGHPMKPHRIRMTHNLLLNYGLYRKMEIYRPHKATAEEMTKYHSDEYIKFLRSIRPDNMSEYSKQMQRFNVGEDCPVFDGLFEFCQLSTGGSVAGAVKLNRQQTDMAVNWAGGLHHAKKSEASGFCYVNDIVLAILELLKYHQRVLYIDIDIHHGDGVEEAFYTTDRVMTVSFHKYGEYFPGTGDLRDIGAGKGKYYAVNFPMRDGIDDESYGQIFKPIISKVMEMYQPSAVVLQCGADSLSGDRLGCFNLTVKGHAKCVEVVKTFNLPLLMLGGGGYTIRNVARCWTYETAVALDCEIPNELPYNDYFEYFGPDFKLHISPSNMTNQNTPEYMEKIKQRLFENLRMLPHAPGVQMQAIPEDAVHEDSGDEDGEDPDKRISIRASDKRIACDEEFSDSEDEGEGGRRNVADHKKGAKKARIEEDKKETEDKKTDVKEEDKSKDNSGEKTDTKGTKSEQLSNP

[8] = test system: SF-539; assay: NCI-60 antiproliferative screening, SF-539; assay type: cell-based; conditions: Homo sapiens, SF-539 (CNS Cancer), read-out: Inhibition% values at 10 μM concentration
Description: as §1

[9] = test system: MALME-3M; assay: NCI-60 antiproliferative screening, MALME-3M; assay type: cell-based; conditions: Homo sapiens, MALME-3M (Melanoma), read-out: Inhibition% values at 10 μM concentration
Description: as §1

[10] = test system: MDA-MB-435; assay: NCI-60 antiproliferative screening, MDA-MB-435; assay type: cell-based; conditions: Homo sapiens, MDA-MB-435 (Melanoma), read-out: Inhibition% values at 10 μM concentration
Description: as §1

[11] = test system: ACHN; assay: NCI-60 antiproliferative screening, ACHN; assay type: cell-based; conditions: Homo sapiens, ACHN (Renal Cancer), read-out: Inhibition% values at 10 μM concentration
Description: as §1

[12] = molecular target: T3, HDAC8 (Homo sapiens, UniProt Q9BY41); assay: In vitro HDAC enzyme assay (Reaction Biology Corporation), HDAC8; assay type: biochemical; conditions: Table 2 isozyme screen; duplicate, SD < 15%
T3 construct: purchased Reaction Biology Corporation
T3 sequence (Q9BY41 whole entry): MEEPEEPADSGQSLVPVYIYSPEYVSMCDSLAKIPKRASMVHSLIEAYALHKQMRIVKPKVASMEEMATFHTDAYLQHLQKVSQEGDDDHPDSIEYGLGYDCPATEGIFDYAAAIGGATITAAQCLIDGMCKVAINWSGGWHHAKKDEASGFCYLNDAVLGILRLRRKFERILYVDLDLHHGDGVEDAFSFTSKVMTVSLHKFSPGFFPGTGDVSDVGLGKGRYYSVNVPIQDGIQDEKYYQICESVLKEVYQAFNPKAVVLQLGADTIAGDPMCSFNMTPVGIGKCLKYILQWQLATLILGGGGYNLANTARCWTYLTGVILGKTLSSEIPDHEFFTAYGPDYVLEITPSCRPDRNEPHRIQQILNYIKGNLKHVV

[13] = test system: HCT116; assay: Antiproliferative assay (Alamar blue, 72 h), HCT116; assay type: cell-based; conditions: Homo sapiens, HCT-116, HCT116 cells, three independent experiments, SD < 10%, read-out: Antiproliferative effect IC50, HCT116
[14] = test system: HL60; assay: NCI-60 antiproliferative screening, HL60; assay type: cell-based; conditions: Homo sapiens, HL-60, HL60 (Leukemia), read-out: Inhibition% values at 10 μM concentration
Description: as §1

[15] = test system: CCRF-CEM; assay: NCI-60 antiproliferative screening, CCRF-CEM; assay type: cell-based; conditions: Homo sapiens, CCRF-CEM (Leukemia), read-out: Inhibition% values at 10 μM concentration
Description: as §1

[16] = test system: SK-OV-3; assay: NCI-60 antiproliferative screening, SK-OV-3; assay type: cell-based; conditions: Homo sapiens, SK-OV-3 (Ovarian Cancer), read-out: Inhibition% values at 10 μM concentration
Description: as §1

[17] = test system: SF-268; assay: NCI-60 antiproliferative screening, SF-268; assay type: cell-based; conditions: Homo sapiens, SF-268 (CNS Cancer), read-out: Inhibition% values at 10 μM concentration
Description: as §1

[18] = test system: HCT-116; assay: NCI-60 antiproliferative screening, HCT-116; assay type: cell-based; conditions: Homo sapiens, HCT-116 (Colon Cancer), read-out: Inhibition% values at 10 μM concentration
Description: as §1

[19] = test system: RPMI-8226; assay: NCI-60 antiproliferative screening, RPMI-8226; assay type: cell-based; conditions: Homo sapiens, RPMI-8226 (Leukemia), read-out: Inhibition% values at 10 μM concentration
Description: as §1

[20] = test system: SK-MEL-28; assay: NCI-60 antiproliferative screening, SK-MEL-28; assay type: cell-based; conditions: Homo sapiens, SK-MEL-28 (Melanoma), read-out: Inhibition% values at 10 μM concentration
Description: as §1

[21] = test system: A498; assay: NCI-60 antiproliferative screening, A498; assay type: cell-based; conditions: Homo sapiens, A498 (Renal Cancer), read-out: Inhibition% values at 10 μM concentration
Description: as §1

[22] = test system: U251; assay: NCI-60 antiproliferative screening, U251; assay type: cell-based; conditions: Homo sapiens, U-251, U251 (CNS Cancer), read-out: Inhibition% values at 10 μM concentration
Description: as §1

[23] = test system: MDA-MB-468; assay: NCI-60 antiproliferative screening, MDA-MB-468; assay type: cell-based; conditions: Homo sapiens, MDA-MB-468 (Breast Cancer), read-out: Inhibition% values at 10 μM concentration
Description: as §1

[24] = test system: HCT-15; assay: NCI-60 antiproliferative screening, HCT-15; assay type: cell-based; conditions: Homo sapiens, HCT-15 (Colon Cancer), read-out: Inhibition% values at 10 μM concentration
Description: as §1

[25] = test system: LOX IMVI; assay: NCI-60 antiproliferative screening, LOX IMVI; assay type: cell-based; conditions: Homo sapiens, LOX IMVI (Melanoma), read-out: Inhibition% values at 10 μM concentration
Description: as §1

COc1cccc(-c2nc3c(c(-c4cccc(OC)c4)n2)CCN(C(=O)CCCCCCC(=O)NO)C3)c1 [Compound 8f, 8-(2,4-Bis(3-methoxyphenyl)-5,8-dihydropyrido [3,4-d]pyrimidin-7(6H)-yl)-N-hydroxy-8-oxooctanamide]
inhibition at 10 µM [1]: 100%
inhibition at 10 µM [2]: 100%
inhibition at 10 µM [3]: 100%
inhibition at 10 µM [4]: 100%
HDAC4 IC50 [5]: poor activity
IC50 [5]: > 10 µM
inhibition at 10 µM [6]: 89%
IC50 [7]: 390 nM
inhibition at 10 µM [8]: 99%
inhibition at 10 µM [9]: 100%
inhibition at 10 µM [10]: 95.8%
inhibition at 10 µM [11]: 100%
HDAC8 IC50 [12]: poor activity
IC50 [12]: 510 nM
IC50 [13]: 3.25 µM
inhibition at 10 µM [14]: 100%
inhibition at 10 µM [15]: 85%
inhibition at 10 µM [16]: 100%
inhibition at 10 µM [17]: 92.2%
inhibition at 10 µM [18]: 96%
inhibition at 10 µM [19]: 88.7%
inhibition at 10 µM [20]: 100%
inhibition at 10 µM [21]: 100%
inhibition at 10 µM [22]: 100%
inhibition at 10 µM [23]: 100%
inhibition at 10 µM [24]: 100%
inhibition at 10 µM [25]: 100%
